Assay [1] concerns CKD mice. Description: Kidney renal fibrosis marker qRT-PCR and H&E histology in CKD mice. The format is in vivo, mouse. The method, then: To assess histological changes in kidneys due to renal injury, Hematoxylin and Eosin (H&E) staining was performed. The kidneys resected from the mice were fixed using formalin (10%) for three hours. Tissues were embedded using Tissue-Plus OCT (Fisher Scientific, 23-730-571). The samples were cryosectioned with a thickness of 12 μm and stained using rapid chrome H&E staining kit (Thermo Scientific, 9990001).
To isolate RNA from the resected kidneys, the tissues were homogenized using a grinder (Sigma, Z529672) and lysed in 1 mL TRIzol solution. After 10 min incubation at room temperature, the samples were centrifuged at 12,000×g for 10 min at 4° C. The supernatants were collected and 200 μL of chloroform (Sigma Aldrich, C2432) were added to each sample. The samples were vortexed, incubated at room temperature for 10 min, and centrifuged for 15 min at 12,000×g, 4° C. The aqueous phase was collected from each sample and 500 μL of isopropanol was added; the samples were vortexed, incubated for 15 min at room temperature following by 15 min on ice, and centrifuged at 21,000×g for 15 min. The supernatants were discarded, and pellets were washed twice with 500 μL cold ethanol (75% v/v) and centrifuged at 21,000×g for 5 min. The isolated RNA templates were heated at 65° for 15 min, and the concentrations were measured using a spectrophotometer (NanoDrop Lite, Thermo scientific). Power SYBR Green RNA-to-CT 1-Step Kit with 100 ng isolated template RNA per reaction was used.
The following mouse primer sequences were purchased from Eurofins Scientific; Gapdh Forward: AACGACCCCTTCATTGAC (SEQ ID NO: 9) and Reverse: TCCACGACATACTCAGCAC (SEQ ID NO: 10); Colla1 Forward: […] (SEQ ID NO: 11) and Reverse: […] (SEQ ID NO: 12); Tgfb1 Forward: […] (SEQ ID NO: 13) and Reverse: CAGCAGCCGGTTACCAAG (SEQ ID NO: 14).

Assay [2] deals with Osteoblasts (hFOB 1.19). As to the kind of experiment: Osteoblast osteogenic gene expression, intracellular TNAP activity and CAV1. The format is cell-based, human. To be noted: 7 days. The method, then:
Osteoblasts (from human fetus, hFOB 1.19, ATCC, CRL-11372) were cultured and grown in DMEM containing 10% v/v bovine calf serum and 1% v/v penicillin-streptomycin. Osteoblasts (passage 4-6) were harvested using 0.25% trypsin-EDTA solution (Caisson Labs, TRL01), seeded with a density of 5,200 cell.cm^−2, and incubated for 24 hours at 37° C. and 5% CO2 with controlled humidity. The cells were treated in three groups of control, OS, and OS supplemented with tyrphostin AG1478 (2.5 μM) for 21 days and media changed every three days. […] Similar to the VSMC experiments, EV-free media were added to the cultures on days 6, 13, and 20, and collected 24 hours later on days 7, 14, and 21. Collected media were centrifuged at 1,000×g for 5 min to remove cell debris. EVs were isolated using the ultracentrifugation at 100,000×g for 1 hour.
Following 7 or 14 days of treatment with control, OS, and OS plus EGFR inhibitor media, VSMCs and osteoblasts were lysed in 1 mL TRIzol solution (Invitrogen, 15596018). Total RNA was isolated according to the manufacturer's protocol. To perform the quantitative real time polymerase chain reaction (qRT-PCR), Power SYBR Green RNA-to-CT 1-Step Kit (Applied Biosystems, 4391178) was used. 50 ng isolated template RNA were added to each reaction for qRT-PCR. The results were normalized relative to Glyceraldehyde 3-phosphate dehydrogenase (GAPDH) expression level as the housekeeping control. The relative gene expression levels were calculated using comparative CT method, considering control groups as the reference.
The following human primer sequences were purchased from Integrated DNA Technologies (IDT); GAPDH Forward: […] (SEQ ID NO: 1) and Reverse: […] (SEQ ID NO: 2); RUNX2 Forward: […] (SEQ ID NO: 3) and Reverse: […] (SEQ ID NO: 4); ALPL Forward: […] (SEQ ID NO: 5) and Reverse: […] (SEQ ID NO: 6); Osteocalcin Forward: TCACACTCCTCGCCCTATT (SEQ ID NO: 7) and Reverse: […] (SEQ ID NO: 8).
To assess the activity of intracellular tissue non-specific alkaline phosphatase (TNAP), a colorimetric assay kit (BioVision, K412) was used. VSMCs (n=3) after 14 days and osteoblasts (n=3) after 7 days, were lysed in 120 μL assay buffer. 80 μL of each sample were mixed with 50 μL of 5 mM pNPP solution and incubated for 60 min at 25° C. The colorimetric change resulting from the reaction was detected using a plate reader to measure absorbance at 405 nm. The results were normalized to the total protein for associated samples measured by a BCA protein assay (BioVision, K813).
VSMCs, osteoblasts, isolated EVs (either from cells or mouse aortas), and matrix vesicles (from osteoblasts) were lysed in RIPA lysis and extraction buffer supplemented with protease inhibitor. After adding Laemmli SDS-sample buffer (1:4 v/v, Boston BioProducts, BP-110R) to each lysate, the samples were denatured at 100° C. for 10 min, loaded into 7.5-12% 1-mm SDS-PAGE gel (15 to 20 μg protein per lane), and run at 170 V. The proteins were then transferred to Trans-Blot turbo nitrocellulose membranes (BIO-RAD, 1704158) at 25 V for 7 min.
To quantify the total protein, the membranes were stained using 2% w/v Ponceau stain (Alfa Aesar, AAJ6074409) for 20 min, followed by one wash with 5% acetic acid and milliQ water for 5 min. After imaging, the intensity of each lane was measured in ImageJ for total protein normalization. Membranes were blocked with 5% w/v bovine serum albumin (HyClone, SH30574.01) in TBS-Tween (1×) for 1 hour. […]

SMILES strings stand for the structures.

Take `COc1cc2ncnc(Nc3cccc(Cl)c3)c2cc1OC` [AG1478, tyrphostin AG1478]: the “expression of common markers of renal injury” value in assay [1] (CKD mice) is given as “does not reduce”. Further, the “Gene expression of renal fibrosis marker Colla1” value in assay [1] (kidney, CKD mice treated vs CKD, p=0.6) was “no significant differences”. The “Gene expression of renal fibrosis marker Tgfb1” value in assay [1] (kidney, CKD mice treated vs CKD, p=0.7) was “no significant differences”. Besides, in assay [2] (OS + 2.5 μM vs OS, p=0.9), the “Gene expression of ALPL in osteoblasts” value was “no significant differences” and the “Gene expression of Osteocalcin (BGLAP) in osteoblasts” value is “no significant differences”. Moreover, in assay [2] (OS + 2.5 μM), the “Gene expression of RUNX2 in osteoblasts” value is listed as “downregulation” and the “intracellular TNAP activity in osteoblasts” value is “significantly increased”. In addition, in assay [2] (OS + 2.5 μM, compared to control group, p=0.01), the “intracellular CAV1 protein in osteoblasts” value is listed as “significantly increased”.

For the origin of these results see patent publication US11612601B1, “Targeting epidermal growth factor to treat vascular calcification” (THE FLORIDA INTERNATIONAL UNIVERSITY BOARD OF TRUSTEES, priority 2022, dated 2023).
